# Entries after “also recorded” stand apart in the source; their conditions may differ. Where two headings read alike, the source gives them in different places.
# Experiments:
# [1] = in vitro; conditions: human
# [2] = molecular target: EBOV GP; conditions: cited from earlier work
# [3] = tested on: pseudotyped WT-MARV; experiment: microbe, parasite or virus in culture; type: cell-based, Marburg virus; conditions: for IC50: Human immunodeficiency virus 1, A549, read-out: IC50 (µM) (MARV)
# [4] = tested on: pseudotyped WT-EBOV; experiment: microbe, parasite or virus in culture; type: cell-based, Ebola virus
# [5] = tested on: lysosomes; conditions: cited from earlier work
# [6] = tested on: Ebola; conditions: cited from earlier work
# [7] = tested on: lysotracker red accumulation in lysosomes, A549 cells; experiment: cells; type: cell-based, Human; conditions: for IC50: Homo sapiens, A549, read-out: IC50, inhibition of lysotracker red accumulation in lysosomes
# [8] = molecular target: RAVN GPΔmucin (Lake Victoria marburgvirus, UniProt Q1PDC7); conditions: 200 µM
# [9] = tested on: A549 cells
# [10] = tested on: pseudotyped WT-MARV; experiment: organism not typed; type: cell-based, Marburg virus; conditions: read-out: MARV Inhibition (%)
# [11] = tested on: pseudotyped vesicular stomatitis virus (VSV); type: cell-based
# [12] = tested on: pseudotyped WT-EBOV; experiment: microbe, parasite or virus in culture; type: cell-based, Ebola virus; conditions: Zaire ebolavirus, read-out: EBOV Inhibition (%)
# [13] = tested on: pseudotyped influenza H5N1; type: cell-based
# [14] = molecular target: EBOV HR2 peptide ([…]) (Zaire ebolavirus, UniProt Q05320); type: binding, Ebola virus; conditions: pH 5.2
# [15] = Zaire ebolavirus, A549, read-out: IC50 (µM) (EBOV)
molecule,measurement,setting,value
CN1[C@@H]2CC[C@H]1C[C@@H](OC(c1ccccc1)c1ccccc1)C2 [Benztropine],CC50,[1],52.9 ± 6.1 µM
CN(C)CCCN1c2ccccc2CCc2ccccc21 [Imipramine],Kd,[2],584 µM
same,CC50,[1],76.3 ± 7.4 µM
same,IC50,[3],6.4 ± 0.6 µM
same,IC50,[4]; [15],2.6 ± 0.1 µM
CNCCCN1c2ccccc2CCc2ccccc21 [desipramine],accumulation in lysosomes,[5],accumulate in lysosomes
same,Ebola entry inhibition in screen of FDA approved drugs,[6],not Ebola entry inhibitors
OCCOc1ccc(/C(=C(/CCCl)c2ccccc2)c2ccccc2)cc1 [Ospemifene],lysosome trapping,[7],no trapping at any concentration; also recorded: no effect
same,CC50,[1]; CC50 (µM),56 µM
same,loss of potency for MARV,[3],35 fold
same,IC50,[3],35 ± 3 µM
same,IC50,[4]; [15],19 ± 10 µM
same,decrease in Tm of MARV (RAVN) GP,[8],2 °C
same,CC50,[9]; human,57 µM
CC(=O)N[C@@H](CC(C)C)C(=O)N[C@@H](CC(C)C)C(=O)N[C@H](C=O)CCCNC(=N)N [Leupeptin],CC50,[1],> 100 µM
same,IC50,[3],0.6 ± 0.1 µM
same,IC50,[4]; [15],0.35 ± 0.07 µM
Fc1ccc([C@@H]2CCNC[C@H]2COc2ccc3c(c2)OCO3)cc1 [Paroxetine],Kd,[2],650 µM
same,CC50,[1],23.1 ± 6.3 µM
same,IC50,[3],3.1 ± 0.1 µM
same,IC50,[4]; [15],0.34 ± 0.05 µM
CN(C)CCOc1ccc(/C(=C(/CCCl)c2ccccc2)c2ccccc2)cc1 [Toremifene],inhibition at 0.625 µM,[10],-3.12%
same,inhibition at 1.25 µM,[10],-0.5%
same,inhibition at 2.5 µM,[10],23.1%
same,inhibition at 5 µM,[10],71.2%
same,inhibition at 10 µM,[10],99%
same,inhibition of pseudotyped vesicular stomatitis virus (VSV),[11],no inhibition
same,IC50,[7],9.7 µM
same,CC50,[1],26.9 ± 2.4 µM
same,Toremifene at 10 µM (% Infection),[3],3%
same,IC50,[3],1.6 ± 0.6 µM
same,IC50,[4]; [15],0.021 ± 0.009 µM
same,IC50,"[4]; Zaire ebolavirus, A549, read-out: Toremifene IC50 (µM)",0.01 µM
same,decrease in Tm of MARV (RAVN) GP,[8],~ 5 °C
same,inhibition at 0.0312 µM,[12],5.93%
same,inhibition at 0.0625 µM,[12],21.8%
same,inhibition at 0.125 µM,[12],41.2%
same,inhibition at 0.25 µM,[12],66.6%
same,inhibition at 0.5 µM,[12],88.5%
CC(C)COCC(CN(Cc1ccccc1)c1ccccc1)N1CCCC1 (stereo not drawn) [Bepridil],Kd,[2],290 µM
same,CC50,[1],34.7 ± 4.6 µM
same,IC50,[3],10 ± 2 µM
same,IC50,[4]; [15],1.6 ± 0.8 µM
CA-074,IC50,[4]; read-out: IC50 (µM) (EBOV),32 ± 8 µM
same,CC50,[9],> 100 µM
CCCCOc1cc(C(=O)NCCN(CC)CC)c2ccccc2n1 [Dibucaine],CC50,[1],67.1 ± 8 µM
same,IC50,[3],6 ± 2 µM
same,IC50,[4]; [15],3.2 ± 0.2 µM
CNCCC(Oc1ccc(C(F)(F)F)cc1)c1ccccc1 (stereo not drawn) [Fluoxetine],inhibition at 0.625 µM,[10],35.7%
same,inhibition at 1.25 µM,[10],46.4%
same,inhibition at 2.5 µM,[10],62%
same,inhibition at 5 µM,[10],74.4%
same,inhibition at 10 µM,[10],88.8%
same,inhibition of pseudotyped vesicular stomatitis virus (VSV),[11],no inhibition
same,CC50,[1],28.7 ± 0.1 µM
same,inhibition of pseudotyped influenza H5N1,[13],no inhibition
same,inhibition at 0.625 µM,[12],6.94%
same,inhibition at 1.25 µM,[12],21.4%
same,inhibition at 2.5 µM,[12],44.8%
same,inhibition at 5 µM,[12],55.7%
same,inhibition at 10 µM,[12],79.2%
same,binding to EBOV HR2 peptide (NOESY),[14],"intermolecular NOEs, highlighted by red arrows, are observed"
CCN(CC)CCCC(C)Nc1ccnc2cc(Cl)ccc12 (stereo not drawn) [chloroquine],IC50,[7],3.3 µM
CN[C@H]1CC[C@@H](c2ccc(Cl)c(Cl)c2)c2ccccc21 [Sertraline],CC50,[1],22.6 ± 6.2 µM
CC(C)NCC(O)COc1cccc2ccccc12 (stereo not drawn) [propranolol],accumulation in lysosomes,[5],accumulate in lysosomes
same,Ebola entry inhibition in screen of FDA approved drugs,[6],not Ebola entry inhibitors
